Consider one compound from US8486447B2, “Pharmaceutical formulation” (Novartis AG, priority 2003, dated 2013).

The structures appear in SMILES notation.

The data set can be described thus: HPLC analysis of thermal degradation of drug substance and melt-processed solid dispersions. Type of data set: physicochemical. The conditions noted are these: for HPLC analysis (thermal degradation): Table 1.

Take `CN(Cc1ccccc1)C(=O)[C@H](Cc1ccc2ccccc2c1)N(C)C(=O)[C@@H]1CCCN1c1nc(=O)c2ccccc2[nH]1` [TKA731, (S)-1-(4-Oxo-1,4-dihydro-quinazolin-2-yl)-pyrrolidine-2-carboxylic acid[(S)-1-(benzyl-methyl-carbamoyl)-2-naphthalen-2-yl-ethyl]-methyl-amide]: the “HPLC analysis (thermal degradation)” value is “No degradation” (drug load 100%, PVPK-30 0%, amorphous TKA731); “No degradation” (solid dispersion, drug load 20%, PVPK-30 80%); “No degradation” (solid dispersion, drug load 30%, PVPK-30 70%); “No degradation” (solid dispersion, drug load 40%, PVPK-30 60%). In addition, the “HPLC analysis (degradation)” value by setting is: (Table 2, starting from amorphous drug, Tg 94.5 °C) “No”; (Table 2, starting from crystalline drug, melting point 175 °C) 20%; (Table 3, amorphous drug load 20%, PVPK-30 70%, sorbitol 10%, processing temperature 170 °C) “No”; (Table 3, amorphous drug load 30%, PVPK-30 65%, sorbitol 5%, processing temperature 170 °C) “No”; (Table 3, amorphous drug load 40%, PVPK-30 60%, sorbitol 0%, processing temperature 170 °C) “No”.
